Here are results for 22 compounds from ChEMBL document CHEMBL2384925, “Structure-activity relationships for 4-anilinoquinoline derivatives as inhibitors of the DNA methyltransferase enzyme DNMT1” (2013).

Assay [1] deals with DNA (cytosine-5)-methyltransferase 1 (Homo sapiens) (UniProt P26358). Nature of the assay: Inhibition of DNMT1 in human HCT116 cells at 5 uM after 24 hrs by Western blot analysis relative to control. Type of assay: cell-based. The following applies: HCT-116. In general terms: Immunoblotting shows a protein as a band on a membrane.
The next assay concerns HCT-116. Nature of the assay: Cytotoxicity against human HCT116 cells assessed as viability. It is filed as functional. The following applies: read-out: TD50 (the source's name).

Sequence of DNA (cytosine-5)-methyltransferase 1 (Homo sapiens) (P26358 whole entry): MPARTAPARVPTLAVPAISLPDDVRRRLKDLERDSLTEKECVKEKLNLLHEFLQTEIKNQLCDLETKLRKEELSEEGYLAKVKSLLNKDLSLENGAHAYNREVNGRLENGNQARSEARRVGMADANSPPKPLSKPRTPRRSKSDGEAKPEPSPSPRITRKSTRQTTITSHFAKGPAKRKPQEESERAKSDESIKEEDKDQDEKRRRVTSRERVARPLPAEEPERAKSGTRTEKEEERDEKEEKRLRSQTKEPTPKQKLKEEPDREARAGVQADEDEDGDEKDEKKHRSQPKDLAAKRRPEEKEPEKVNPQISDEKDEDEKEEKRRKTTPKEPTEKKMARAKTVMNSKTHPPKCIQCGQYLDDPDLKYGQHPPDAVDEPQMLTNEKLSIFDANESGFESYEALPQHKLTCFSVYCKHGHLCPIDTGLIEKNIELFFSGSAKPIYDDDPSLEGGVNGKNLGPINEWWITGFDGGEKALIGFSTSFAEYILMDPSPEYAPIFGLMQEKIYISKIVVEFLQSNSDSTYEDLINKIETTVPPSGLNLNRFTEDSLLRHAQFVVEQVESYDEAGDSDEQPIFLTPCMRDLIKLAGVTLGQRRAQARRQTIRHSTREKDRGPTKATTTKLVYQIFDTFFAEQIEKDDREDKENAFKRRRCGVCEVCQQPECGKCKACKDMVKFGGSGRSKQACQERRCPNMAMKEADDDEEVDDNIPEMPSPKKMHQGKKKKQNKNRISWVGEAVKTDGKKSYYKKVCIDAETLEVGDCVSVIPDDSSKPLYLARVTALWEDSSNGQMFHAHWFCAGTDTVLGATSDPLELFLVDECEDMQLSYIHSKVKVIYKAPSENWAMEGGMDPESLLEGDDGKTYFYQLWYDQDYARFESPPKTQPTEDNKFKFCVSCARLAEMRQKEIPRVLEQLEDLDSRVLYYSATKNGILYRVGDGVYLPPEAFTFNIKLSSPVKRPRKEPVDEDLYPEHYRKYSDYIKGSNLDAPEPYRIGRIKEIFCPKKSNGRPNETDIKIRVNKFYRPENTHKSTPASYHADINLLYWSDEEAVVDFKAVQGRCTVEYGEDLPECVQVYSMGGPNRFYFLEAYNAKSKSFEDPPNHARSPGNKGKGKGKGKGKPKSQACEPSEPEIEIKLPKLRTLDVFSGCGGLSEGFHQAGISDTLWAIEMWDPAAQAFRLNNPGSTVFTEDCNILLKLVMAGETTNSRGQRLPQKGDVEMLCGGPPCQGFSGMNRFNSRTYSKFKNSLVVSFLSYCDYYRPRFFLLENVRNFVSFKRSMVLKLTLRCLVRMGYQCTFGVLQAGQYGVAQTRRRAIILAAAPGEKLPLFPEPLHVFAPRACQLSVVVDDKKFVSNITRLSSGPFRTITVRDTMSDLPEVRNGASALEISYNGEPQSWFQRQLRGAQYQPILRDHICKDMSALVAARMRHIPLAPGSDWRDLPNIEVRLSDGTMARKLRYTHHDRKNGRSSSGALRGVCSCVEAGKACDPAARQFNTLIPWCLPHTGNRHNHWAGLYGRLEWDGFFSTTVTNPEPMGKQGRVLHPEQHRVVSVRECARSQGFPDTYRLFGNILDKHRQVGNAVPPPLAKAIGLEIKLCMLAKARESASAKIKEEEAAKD

The inhibition is the relative decrease from the control value, in per cent. High values mean a response far below the control, low ones a response near the control. In assay [1], `C/C(=N\N=C(N)N)c1ccc(C(=O)Nc2ccc(Nc3ccnc4ccc(N(C)C)cc34)cc2)cc1` returned an inhibition of 34%. The CC50 in the assay on HCT-116 amounted to 25 µM.
On the same counts, the results for `C[n+]1ccc(Nc2ccc(C(=O)Nc3ccc(Nc4ccnc5ccc(N)cc45)cc3)cc2)cc1` are 0% and 50 µM.
In assay [1], `CN(C)c1ccc2nccc(Nc3ccc(C(=O)Nc4ccc(Nc5cc[n+](C)cc5)cc4)cc3)c2c1` gave an inhibition of 16%. For the same compound, in the assay on HCT-116, the CC50 stood at 50 µM.
On the same counts, the results for `C/C(=N\N=C(N)N)c1cccc(NC(=O)c2ccc(Nc3ccnc4ccc(N(C)C)cc34)cc2)c1` are 0% and 25 µM.
The compound `C[n+]1ccc(Nc2cccc(C(=O)Nc3ccc(Nc4ccnc5ccc(N)cc45)cc3)c2)cc1` displayed an inhibition in assay [1] of 80%. In the assay with HCT-116, the CC50 came to 25 µM.
On the same counts, the results for `C[n+]1ccc(Nc2cccc(C(=O)Nc3ccc(Nc4ccnc5ccccc45)cc3)c2)cc1` are 80% and 25 µM.
In assay [1], `C[n+]1ccc(Nc2ccc(NC(=O)c3ccc(Nc4ccnc5ccc(N)cc45)cc3)cc2)cc1` showed an inhibition of 0%. The CC50 in the assay on HCT-116 turned out to be 50 µM.
On the same counts, the results for `Cc1cc(Nc2ccc(NC(=O)c3ccc(Nc4ccnc5ccc(Cl)cc45)cc3)cc2)nc(N)n1` are 30% and 25 µM.
On the same counts, the results for `CN(C)c1ccc2nccc(Nc3ccc(NC(=O)c4ccc(Nc5cc[n+](C)cc5)cc4)cc3)c2c1` are 45% and 50 µM.
On the same counts, the results for `C[n+]1ccc(Nc2cccc(NC(=O)c3ccc(Nc4ccnc5ccc(N)cc45)cc3)c2)cc1` are 2% and 12.5 µM.
With `C/C(=N\N=C(N)N)c1ccc(NC(=O)c2ccc(Nc3ccnc4ccc(N(C)C)cc34)cc2)cc1`, the inhibition in assay [1] turned out to be 30%. The CC50 in the assay on HCT-116 came out at 25 µM.
Compound `C[n+]1ccc(Nc2ccc(NC(=O)c3ccc(Nc4ccnc5ccccc45)cc3)cc2)cc1` showed an inhibition in assay [1] of 0%. The CC50 in the assay on HCT-116 amounted to 25 µM.
On the same counts, the results for `Cc1cc(Nc2ccc(C(=O)Nc3ccc(Nc4ccnc5ccccc45)cc3)cc2)nc(N)n1` are 75% and 25 µM.
`C[n+]1ccc(Nc2cccc(NC(=O)c3ccc(Nc4ccnc5ccccc45)cc3)c2)cc1` came in with an inhibition in assay [1] of 0%. Besides, in the assay on HCT-116, the CC50 was determined as 12.5 µM.
On the same counts, the results for `C/C(=N\N=C(N)N)c1cccc(C(=O)Nc2ccc(Nc3ccnc4ccc(N(C)C)cc34)cc2)c1` are 40% and 25 µM.
The compound `Cc1cc(Nc2cccc(C(=O)Nc3ccc(Nc4ccnc5ccccc45)cc3)c2)nc(N)n1` showed an inhibition in assay [1] of 85%. Further, in the assay on HCT-116, the CC50 came to 25 µM.
On the same counts, the results for `C[n+]1ccc(Nc2ccc(C(=O)Nc3ccc(Nc4ccnc5ccccc45)cc3)cc2)cc1` are 0% and 12.5 µM.
Regarding `Cc1cc(Nc2ccc(NC(=O)c3ccc(Nc4ccnc5ccccc45)cc3)cc2)nc(N)n1`, in assay [1], the inhibition is 97%. The CC50 in the assay with HCT-116 came out at 25 µM.
The compound `Cc1cc(Nc2ccc(NC(=O)c3ccc(Nc4ccnc5c(F)c(F)c(F)cc45)cc3)cc2)nc(N)n1` returned an inhibition in assay [1] of 18%. In the assay with HCT-116, the CC50 worked out at 25 µM.
`CN(C)c1ccc2nccc(Nc3ccc(NC(=O)c4cccc(Nc5cc[n+](C)cc5)c4)cc3)c2c1` gave an inhibition in assay [1] of 75%. For the same compound, in the assay on HCT-116, the CC50 is 25 µM.
On the same counts, the results for `CN(C)c1ccc2nccc(Nc3ccc(C(=O)Nc4cccc(Nc5cc[n+](C)cc5)c4)cc3)c2c1` are 0% and 25 µM.
As to `Cc1cc(Nc2ccc(NC(=O)c3ccc(Nc4ccnc5ccc(N(C)C)cc45)cc3)cc2)nc(N)n1`, in assay [1], the inhibition was 43%. Further, in the assay with HCT-116, the CC50 was 25 µM.
